Columns and labels:
Format in all cases: cell-based, HEK-293T
Histamine H1 receptor = Histamine H1 receptor (Homo sapiens, UniProt P35367); experiment: Displacement of [3H]-mepyramine from human histamine H1 receptor expressed in HEK293T cells after 1 to 1.5 hrs by liquid scintillation counting analysis
Histamine H4 receptor = Histamine H4 receptor (Homo sapiens, UniProt Q9H3N8); experiment: Displacement of [3H]-histamine from human histamine H4 receptor expressed in HEK293T cells after 1 to 1.5 hrs by liquid scintillation counting analysis
[1] = molecular target: Beta-2 adrenergic receptor (Homo sapiens, UniProt P07550); experiment: Displacement of [3H]-dihydroalprenolol from human beta2 adrenergic receptor expressed in HEK293T cells after 1 to 1.5 hrs by liquid scintillation counting analysis
Beta-2 adrenergic receptor, sequence (P07550 whole entry): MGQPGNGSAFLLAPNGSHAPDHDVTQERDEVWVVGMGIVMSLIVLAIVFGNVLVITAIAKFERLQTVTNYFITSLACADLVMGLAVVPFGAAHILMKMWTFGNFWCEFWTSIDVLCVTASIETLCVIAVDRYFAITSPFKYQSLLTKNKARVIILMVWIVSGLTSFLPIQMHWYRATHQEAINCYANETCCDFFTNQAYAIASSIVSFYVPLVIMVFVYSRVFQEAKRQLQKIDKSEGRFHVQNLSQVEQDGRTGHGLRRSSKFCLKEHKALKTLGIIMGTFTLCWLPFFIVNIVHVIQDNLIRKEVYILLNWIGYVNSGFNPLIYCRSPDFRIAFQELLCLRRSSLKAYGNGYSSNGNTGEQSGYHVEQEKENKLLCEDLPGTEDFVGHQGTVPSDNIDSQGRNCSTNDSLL

Histamine H1 receptor, sequence (P35367 whole entry): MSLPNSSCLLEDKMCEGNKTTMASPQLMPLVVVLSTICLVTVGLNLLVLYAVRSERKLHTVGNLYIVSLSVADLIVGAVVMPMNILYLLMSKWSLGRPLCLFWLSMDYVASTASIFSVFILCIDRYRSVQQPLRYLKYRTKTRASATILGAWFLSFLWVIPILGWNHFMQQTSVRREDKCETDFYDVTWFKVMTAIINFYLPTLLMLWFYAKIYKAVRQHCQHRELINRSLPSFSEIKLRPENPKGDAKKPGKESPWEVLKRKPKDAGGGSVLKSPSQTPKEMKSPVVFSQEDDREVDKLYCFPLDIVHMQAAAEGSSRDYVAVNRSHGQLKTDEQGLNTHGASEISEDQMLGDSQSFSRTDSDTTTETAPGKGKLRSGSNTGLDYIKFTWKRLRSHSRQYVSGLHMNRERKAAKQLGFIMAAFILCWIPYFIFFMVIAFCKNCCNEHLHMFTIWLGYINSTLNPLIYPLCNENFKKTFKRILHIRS

Row | Ki (Histamine H1 receptor) [µM] | Ki (Histamine H4 receptor) [µM] | Ki [1] [µM] | Structure (SMILES)
1 | < 10 | 6.92 | – | Cc1cc(N2CCN(C)CC2)nc(N2CCOCC2)n1
2 | – | 0.145 | > 10 | CN1CCN(c2ncnc3c2oc2ccccc23)CC1
3 | – | 6.31 | > 10 | COc1ccc2c(c1)[nH]c1c(N3CCN(C)CC3)ncnc12
4 | – | 0.148 | > 10 | Cc1nc(N2CCN(C)CC2)c2oc3ccccc3c2n1
5 | > 10 | 6.92 | – | Cc1cc2nc(SCCN(C)C)[nH]c2cc1C
6 | – | 5.89 | > 10 | COc1ccc2[nH]c3c(N4CCN(C)CC4)ncnc3c2c1
7 | < 10 | 6.46 | – | Cc1nnc2c(N3CCN(C)CC3)nc3ccccc3n12
8 | – | 0.269 | > 10 | CCc1nc(N2CCN(C)CC2)c2oc3ccccc3c2n1
9 | – | 5.89 | > 10 | CN(C)CCNc1ncnc2c1[nH]c1ccc(Cl)cc12

— ChEMBL document CHEMBL3739384 (Medchemcomm, 2015)
